Values quoted from earlier work in patent US5661161A, “Inhibitors of farnesyl-protein transferase” (Merck & Co., Inc., priority 1995, dated 1997).

Test system: farnesyl-protein transferase
Conditions: literature; via inhibition of HMG-CoA reductase

CC[C@H](C)C(=O)O[C@H]1CCC=C2C=C[C@H](C)[C@H](CC[C@@H]3C[C@@H](O)CC(=O)O3)[C@H]21 [compactin]
Indirect inhibition of farnesyl-protein transferase in vivo: Indirect inhibition

CC[C@H](C)C(=O)O[C@H]1C[C@@H](C)C=C2C=C[C@H](C)[C@H](CC[C@@H]3C[C@@H](O)CC(=O)O3)[C@H]21 [lovastatin]
Indirect inhibition of farnesyl-protein transferase in vivo: Indirect inhibition
